Experimental data published in patent publication US11028066B2, “Inhibitors of lysine specific demethylase-1” (CELGENE QUANTICEL RESEARCH, INC., priority 2014, dated 2021).

Tests used:
THP-1 (AML) cells = assay: LSD1 CD11b cellular assay (flow cytometry); format: cell-based; settings: Homo sapiens, THP-1, 96 h; CD11b expressing cells, 4 days incubation
Experimental: To analyze LSD1 inhibitor efficacy in cells, a CD11b flow cytometry assay was performed. LSD1 inhibition induces CD11b expression in THP-1 (AML) cells which can be measured by flow cytometry. […] LSD1 test compounds were serially diluted in DMSO. The dilutions were added to each well accordingly to a final concentration of 0.2% DMSO. The cells were incubated at 37 degrees Celsius in 5% CO2 for 4 days. 250 μL of each well was transferred to a well in a 96 well round bottom plate. The plate was centrifuged at 1200 rpm at 4 degrees Celsius in a Beckman Coulter Alegra 6KR centrifuge for 5 minutes. The media was removed leaving the cells at the bottom of the wells. The cells were washed in 100 μL cold HBSS (Hank's Balanced Salt Solution) plus 2% BSA (Bovine Serum Albumin) solution and centrifuged at 1200 rpm at 4 degrees Celsius for 5 minutes. The wash was removed. […] The cells were centrifuged and washed two times in 100 μL HBSS plus 2% BSA. After the final spin the cells were resuspended in 100 μL HBSS plus 2% BSA containing 1 ug/mL DAPI (4′,6-diamidino-2-phenylindole). The cells were then analyzed by flow cytometry in a BD FACSAria machine. Cells were analyzed for CD11b expression. The percent of CD11b expressing cells for each inhibitor concentration was used to determine an IC50 curve for each compound analyzed.

full-length human LSD1 = full-length human LSD1 (Homo sapiens (Human), UniProt O60341); assay: In vitro enzyme inhibition assay LSD-1 (TR-FRET); format: biochemical; settings: H3K4me1-biotin peptide
Experimental: This assay determines the ability of a test compound to inhibit LSD1 demethylase activity.
The enzymatic assay of LSD1 activity is based on Time Resolved-Fluorescence Resonance Energy Transfer (TR-FRET) detection.
Plates were read by EnVision Multilabel Reader in TR-FRET mode (excitation at 320 nm, emission at 615 nm and 665 nm) after 1 hour incubation at room temperature.
The ability of the compounds disclosed herein to inhibit LSD1 activity was quantified and the respective IC50 value was determined.

SMILES | IC50 (THP-1 (AML) cells) | IC50 (full-length human LSD1)
Cc1ccc(-c2c(-c3ccc(C#N)cc3)nc(N3CCC4(CCNC4)CC3)c(=O)n2C)cc1 [Example 24, 4-(6-{2,8-diazaspiro[4.5]decan-8-yl}-4-methyl-3-(4-methylphenyl)-5-oxo-4,5-dihydropyrazin-2-yl)benzonitrile] | < 100 nM | < 100 nM
Cc1ccc(-c2c(-c3ccc(C#N)cc3)nc(NC[C@H]3CCNC3)c(=O)n2C)cc1 [Example 17, 4-[4-methyl-3-(4-methylphenyl)-5-oxo-6-{[(3S)-pyrrolidin-3-ylmethyl]amino}-4,5-dihydropyrazin-2-yl]benzonitrile] | < 100 nM | < 100 nM
CNC1CCN(c2nc(-c3ccc(C#N)cc3)c(-c3ccc(C)cc3)n(C)c2=O)CC1 [Example 20, 4-{4-methyl-6-[4-(methylamino)piperidin-1-yl]-3-(4-methylphenyl)-5-oxo-4,5-dihydropyrazin-2-yl}benzonitrile] | < 100 nM | < 100 nM
Cc1ccc(Cn2cc(-c3ccc(C#N)cc3)nc(N3CCC(N)CC3)c2=O)cc1 [Example 2, 4-[6-(4-aminopiperidin-1-yl)-4-[(4-methylphenyl)methyl]-5-oxo-4,5-dihydropyrazin-2-yl]benzonitrile] | 100 to 1000 nM | < 100 nM
N#Cc1ccc(-c2cn(Cc3cccc(Cl)c3)c(=O)c(N3CCC(N)CC3)n2)cc1 [Example 4, 4-[6-(4-aminopiperidin-1-yl)-4-(3-chloro-benzyl)-5-oxo-4,5-dihydro-pyrazin-2-yl]-benzonitrile] | 1000 to 10000 nM | < 100 nM
COc1cccc(Cn2cc(-c3ccc(C#N)cc3)nc(N3CCC(N)CC3)c2=O)c1 [Example 10, 4-[6-(4-aminopiperidin-1-yl)-4-[(3-methoxyphenyl)methyl]-5-oxo-4,5-dihydropyrazin-2-yl]benzonitrile] | 100 to 1000 nM | < 100 nM
Cc1ccc(-c2c(-c3ccc(C#N)cc3)nc(N3CCC(N)CC3)c(=O)n2CCO)cc1 [Example 37, 4-[6-(4-amino-piperidin-1-yl)-4-(2-hydroxy-ethyl)-5-oxo-3-p-tolyl-4,5-dihydro-pyrazin-2-yl]-benzonitrile] | < 100 nM | < 100 nM
N#Cc1ccc(-c2cn(CC3CCOC3)c(=O)c(N3CCC(N)CC3)n2)cc1F (stereo not shown) [Example 14, 4-[6-(4-amino-piperidin-1-yl)-5-oxo-4-(tetrahydro-furan-3-ylmethyl)-4,5-dihydro-pyrazin-2-yl]-2-fluoro-benzonitrile] | 100 to 1000 nM | < 100 nM
N#Cc1ccc(-c2cn(Cc3ccccc3F)c(=O)c(N3CCC(N)CC3)n2)cc1 [Example 3, 4-[6-(4-aminopiperidin-1-yl)-4-[(2-fluorophenyl)methyl]-5-oxo-4,5-dihydropyrazin-2-yl]benzonitrile] | 100 to 1000 nM | < 100 nM
N#Cc1ccc(-c2cn(CC3CC3)c(=O)c(N3CCC(N)CC3)n2)cc1F [Example 7, 4-[6-(4-amino-piperidin-1-yl)-4-cyclopropylmethyl-5-oxo-4,5-dihydro-pyrazin-2-yl]-2-fluoro-benzonitrile] | 1000 to 10000 nM | < 100 nM
Cc1ccc(-c2c(-c3ccc(C#N)cc3)nc(N3CCCC(N)C3)c(=O)n2C)cc1 (stereo not shown) [Example 22, 4-[6-(3-aminopiperidin-1-yl)-4-methyl-3-(4-methylphenyl)-5-oxo-4,5-dihydropyrazin-2-yl]benzonitrile] | < 100 nM | < 100 nM
Cc1ccc(-c2c(-c3ccc(C#N)cc3)nc(N3CCC4CNCC4C3)c(=O)n2C)cc1 (stereo not shown) [Example 23, 4-[4-methyl-3-(4-methylphenyl)-6-{octahydro-1H-pyrrolo[3,4-c]pyridin-5-yl}-5-oxo-4,5-dihydropyrazin-2-yl]benzonitrile] | < 100 nM | < 100 nM
C[C@H](c1ccccc1)n1cc(-c2ccc(C#N)cc2)nc(N2CCC(N)CC2)c1=O [Example 12, 4-[6-(4-aminopiperidin-1-yl)-5-oxo-4-[(1R)-1-phenylethyl]-4,5-dihydropyrazin-2-yl]benzonitrile] | 1000 to 10000 nM | < 100 nM

Other lines, results leading:

IC50 (THP-1 (AML) cells) | IC50 (full-length human LSD1) | SMILES
< 100 nM | < 100 nM | Cn1c(-c2ccc(C3CC3)cc2)c(-c2ccc(C#N)c(F)c2)nc(N2CCC(N)CC2)c1=O [Example 50, 4-[6-(4-amino-piperidin-1-yl)-3-(4-cyclopropyl-phenyl)-4-methyl-5-oxo-4,5-dihydro-pyrazin-2-yl]-2-fluoro-benzonitrile]
< 100 nM | < 100 nM | COc1ccc(-c2c(-c3ccc(C#N)c(F)c3)nc(N3CCC(N)CC3)c(=O)n2CCCC(N)=O)cc1 [Example 90, 4-[3-(4-aminopiperidyl)-5-(4-cyano-3-fluorophenyl)-6-(4-methoxyphenyl)-2-oxohydropyrazinyl]butanamide]
< 100 nM | < 100 nM | COc1ccc(-c2c(-c3ccc(C#N)c(F)c3)cc(N3CCC(N)CC3)c(=O)n2C)cc1 [Example 67, 4-(5-(4-aminopiperidin-1-yl)-2-(4-methoxyphenyl)-1-methyl-6-oxo-1,6-dihydropyridin-3-yl)-2-fluorobenzonitrile]
< 100 nM | < 100 nM | CNC1CCN(c2cc(-c3ccc(C#N)cc3)c(-c3ccc(N(C)C)nc3)n(C)c2=O)CC1 [Example 92, 4-{2-[6-(dimethylamino)(3-pyridyl)]-1-methyl-5-[4-(methylamino)piperidyl]-6-oxo-3-hydropyridyl}benzenecarbonitrile]
< 100 nM | < 100 nM | COCCn1c(-c2ccc(C)cc2)c(-c2ccc(C#N)c(F)c2)nc(NC[C@H]2CCNC2)c1=O [Example 43, 4-(6-{[((3S)-pyrrolidin-3-yl)methyl]amino}-4-(2-methoxyethyl)-3-(4-methylphenyl)-5-oxo(4-hydropyrazin-2-yl))-2-fluorobenzenecarbonitrile]
< 100 nM | < 100 nM | COc1ccc(-c2c(-c3ccc(C#N)nc3)nc(N3CCC(N)CC3)c(=O)n2C)cc1 [Example 51, 5-[6-(4-amino-piperidin-1-yl)-3-(4-methoxy-phenyl)-4-methyl-5-oxo-4,5-dihydro-pyrazin-2-yl]-pyridine-2-carbonitrile]
< 100 nM | < 100 nM | CCc1ccc(-c2c(-c3ccc(C#N)nc3)nc(NC[C@H]3CCNC3)c(=O)n2C)cc1 [Example 56, 5-{3-(4-ethyl-phenyl)-4-methyl-5-oxo-6-[((3S)-pyrrolidin-3-ylmethyl)-amino]-4,5-dihydro-pyrazin-2-yl}-pyridine-2-carbonitrile]
< 100 nM | < 100 nM | CCc1ccc(-c2c(-c3ccc(C#N)c(F)c3)cc(NC[C@H]3CCNC3)c(=O)n2C)cc1 [Example 72, (S)-4-(2-(4-ethylphenyl)-1-methyl-6-oxo-5-(pyrrolidin-3-ylmethylamino)-1,6-dihydropyridin-3-yl)-2-fluorobenzonitrile]
< 100 nM | < 100 nM | COc1ccc(-c2c(-c3ccc(C#N)c(F)c3)nc(N3CCC(N)CC3)c(=O)n2CC(N)=O)cc1 [Example 88, 2-[3-(4-aminopiperidyl)-5-(4-cyano-3-fluorophenyl)-6-(4-methoxyphenyl)-2-oxohydropyrazinyl]acetamide]
< 100 nM | < 100 nM | CCc1ccc(-c2c(-c3ccc(C#N)nc3)cc(NC[C@H]3CCNC3)c(=O)n2C)cc1 [Example 71, (S)-5-(2-(4-ethylphenyl)-1-methyl-6-oxo-5-(pyrrolidin-3-ylmethylamino)-1,6-dihydropyridin-3-yl)picolinonitrile]
